Experimental data: patent publication US20130196050A1, “SALTY TASTE ENHANCER” (AJINOMOTO CO., INC., priority 2010, published 2013)

The compounds below were run against T1, Human ENaC δ, β and γ subunit (Homo sapiens, UniProt P51168+P51170+P51172) (assay: Measurement of ENaC activation potency (two electrode voltage clamp current in ENaC-expressing oocyte)). Settings: lowest concentration increasing the current value by not less than 10% vs before addition.
T1 construct: expressed in transfected cells; host or cells: Xenopus laevis (African clawed frog) oocytes injected with cRNA
T1 sequence (P51172 1-638 isoform P51172-1): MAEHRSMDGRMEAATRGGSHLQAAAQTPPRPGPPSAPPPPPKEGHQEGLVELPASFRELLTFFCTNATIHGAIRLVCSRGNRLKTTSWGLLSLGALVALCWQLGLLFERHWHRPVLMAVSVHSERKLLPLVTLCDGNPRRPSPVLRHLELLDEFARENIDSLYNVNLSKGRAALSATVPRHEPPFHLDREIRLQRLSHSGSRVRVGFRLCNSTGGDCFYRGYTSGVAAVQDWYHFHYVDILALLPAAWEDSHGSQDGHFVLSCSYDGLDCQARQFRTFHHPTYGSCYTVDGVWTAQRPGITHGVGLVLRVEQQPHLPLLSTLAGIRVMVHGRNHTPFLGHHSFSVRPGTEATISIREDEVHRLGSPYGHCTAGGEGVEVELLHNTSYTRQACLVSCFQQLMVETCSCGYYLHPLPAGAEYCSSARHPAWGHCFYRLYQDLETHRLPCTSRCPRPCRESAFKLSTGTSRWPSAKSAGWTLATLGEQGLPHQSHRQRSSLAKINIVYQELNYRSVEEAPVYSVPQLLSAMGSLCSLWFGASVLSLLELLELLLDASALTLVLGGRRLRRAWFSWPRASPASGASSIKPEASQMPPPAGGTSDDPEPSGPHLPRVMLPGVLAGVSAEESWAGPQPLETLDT
T1 sequence (P51168 1-640): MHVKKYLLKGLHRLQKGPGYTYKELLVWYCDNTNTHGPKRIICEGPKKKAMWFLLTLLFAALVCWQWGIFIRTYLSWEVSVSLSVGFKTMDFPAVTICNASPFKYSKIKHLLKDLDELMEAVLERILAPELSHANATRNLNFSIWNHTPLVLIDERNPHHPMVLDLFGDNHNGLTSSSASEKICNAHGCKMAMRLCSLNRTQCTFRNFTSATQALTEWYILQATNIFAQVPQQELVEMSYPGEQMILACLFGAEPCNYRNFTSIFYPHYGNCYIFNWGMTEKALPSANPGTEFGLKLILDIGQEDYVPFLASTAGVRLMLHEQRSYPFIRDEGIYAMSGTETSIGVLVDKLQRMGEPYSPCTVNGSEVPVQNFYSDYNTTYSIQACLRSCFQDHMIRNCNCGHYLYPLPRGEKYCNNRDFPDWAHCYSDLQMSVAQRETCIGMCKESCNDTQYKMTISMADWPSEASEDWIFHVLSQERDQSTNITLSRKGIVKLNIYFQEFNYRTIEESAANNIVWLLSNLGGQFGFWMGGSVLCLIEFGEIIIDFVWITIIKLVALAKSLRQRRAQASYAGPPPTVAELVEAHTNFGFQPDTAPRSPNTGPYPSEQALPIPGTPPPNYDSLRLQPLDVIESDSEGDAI
T1 sequence (P51170 1-649): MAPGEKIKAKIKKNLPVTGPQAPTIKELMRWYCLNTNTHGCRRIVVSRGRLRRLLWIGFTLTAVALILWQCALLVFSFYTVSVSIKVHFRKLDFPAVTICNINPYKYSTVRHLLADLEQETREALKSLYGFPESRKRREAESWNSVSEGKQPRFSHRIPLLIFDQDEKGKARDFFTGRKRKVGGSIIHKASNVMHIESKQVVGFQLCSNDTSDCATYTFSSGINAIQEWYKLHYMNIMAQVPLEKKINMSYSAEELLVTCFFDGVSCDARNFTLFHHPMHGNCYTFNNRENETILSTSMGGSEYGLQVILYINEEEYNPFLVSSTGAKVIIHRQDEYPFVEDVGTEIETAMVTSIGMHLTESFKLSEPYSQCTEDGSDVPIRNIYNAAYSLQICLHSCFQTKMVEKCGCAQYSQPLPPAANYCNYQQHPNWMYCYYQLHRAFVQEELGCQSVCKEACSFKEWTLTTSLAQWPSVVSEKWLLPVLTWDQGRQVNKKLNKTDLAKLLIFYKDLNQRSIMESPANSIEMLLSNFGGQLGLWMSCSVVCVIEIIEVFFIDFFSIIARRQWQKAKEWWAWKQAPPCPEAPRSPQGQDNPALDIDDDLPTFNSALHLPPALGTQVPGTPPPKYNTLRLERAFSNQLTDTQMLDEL
Type: cell-based
Protocol: ENaC activation current value, namely, the inward current in ENaC-expressing oocyte was measured as follows.
According to the method described in Motonao Nakamura, Takao Shimizu: Experiment of African clawed frog oocyte, Experimental Medicine Vol. 11, No. 3, 224-232 (1993), oocyte was collected from African clawed frog, […], and the current value was measured by a Two Electrode Voltage Clamp technique. In the present invention, ND96 (96 mM NaCl, 2 mM KCl, 1 mM MgCl2, 5 mM Hepes, 1.8 mM CaCl2, pH 7.6) was used instead of MBS buffer in the above-mentioned document. Injector NANOLITER 2000 manufactured by World Precision Instruments was used for microinjection, OpusXpress 6000A manufactured by Molecular Devices was used for current value measurement by a Two Electrode Voltage Clamp technique, and Clampfit 10.2 software manufactured by Molecular Devices was used for data analysis.
Human ENaC δ, β and γ subunit genes shown by SEQ ID NOs: 1, 2 and 3, respectively, in the Sequence Listing were each cloned into a plasmid vector, and used as a template DNA for cRNA synthesis. cRNA was synthesized using MEGAscript kit manufactured by Ambion and according to the method of the manual of the manufacturer.
A mixture of the same amount of ENaC δ subunit cRNA (0.4 to 0.8 μg/μL), and β and γ subunits cRNA (0.4 μg/μL) was injected into the oocyte of African clawed frog at 27.6 nL per oocyte, and the oocyte was cultured for 16 hours to 72 hours. Thereafter, the oocyte was set on a measuring apparatus OpusXpress 6000A, the electrodes were inserted into the oocyte, the voltage was clamped at a level lower by −30 mV than the resting membrane potential by a Two Electrode Voltage Clamp technique, and the current value was measured.
To measure the ENaC activation potency, oocyte was stimulated with each test compound, and the minimum effective dose (hereinafter to be abbreviated as MED) of the compound at the time point when the electric current started to increase was measured. In this case, the minimum effective dose of the stimulation compound that increased the current value by not less than 10%, as compared to the current value before addition of the compound and without stimulation, was taken as MED. A smaller MED means higher ENaC activation potency.
Each test compound was directly dissolved in ND96, or first dissolved in dimethyl sulfoxide (DMSO) to 100 mM, and then prepared by diluting the solution with ND96 to a concentration used for the evaluation. The concentration of the test compound in ND96 was prepared to various concentrations within the range of 0.1 nM to 300 μm.
ND96 as a perfusion fluid was flowed at a rate of 0.5 mL/min through the measuring apparatus OpusXpress 6000A on which ENaC-expressing oocyte was set, the perfusion fluid was temporarily stopped every 3 minutes to add a test compound solution (0.25 mL) dissolved in ND96 at a rate of 0.5 mL/minute. In this way, the test compound was contacted with ENaC-expressing oocyte, and whether ENaC is activated by the compound was examined by measuring the current value. After addition of the test compound, feeding of the perfusion fluid was resumed to wash away the compound to be ready for the next addition of the compound.
The compound was added successively from a low concentration to a high concentration to stimulate ENaC-expressing oocyte. The concentrations actually added was, for example, 1 nM, 3 nM, 10 nM, 30 nM, 100 nM, 300 nM; 1 μM, 3 μM, 10 μm, 30 μm, 100 μm, 300 μm; 1.2 μM, 6 μM, 30 μm, 150 μm of one test compound. The compound was added from low concentrations to high concentrations at 3 minute intervals. The first compound was added from a low concentration to a high concentration, then the second and the third compounds were similarly added successively to the same oocyte, and changes in the current value were measured. The current value was continuously measured from the start to the end of the experiment. […]
`O=C(N[C@@H](Cc1ccccc1)C(=O)O)c1c(O)cc(O)cc1O` [Example 123] was tested, and the “MED value (minimum effective dose)” value was 10 µM.
`O=C(N[C@@H](CCc1ccccc1)C(=O)O)c1c(O)cccc1O` [Example 83] was tested, and the “MED value (minimum effective dose)” value was 0.3-1^ μM.
In the case of `CC(Cc1ccccc1)(NC(=O)CCc1ccccc1)C(=O)O` (centres unmarked) [Example 75], the “MED value (minimum effective dose)” value is reported as 3 to 10 µM.
In the case of `O=C(NCCc1c[nH]c2ccccc12)c1cc(Br)ccc1O` [Example 95], the “MED value (minimum effective dose)” value is reported as 1 µM.
With `O=C(NC(Cc1c[nH]c2ccccc12)C(=O)O)c1cccc(O)c1O` (centres unmarked) [Example 39] the “MED value (minimum effective dose)” value was 1 µM.
In the case of `O=C(NCCc1c[nH]c2ccccc12)c1c(O)cc(O)cc1O` [Example 125], the “MED value (minimum effective dose)” value is reported as 1 µM.
`O=C(NCCc1c[nH]c2ccc(O)cc12)c1cc(Br)ccc1O` [Example 93] was tested, and the “MED value (minimum effective dose)” value was 0.3 µM.
In the case of `Cc1cc(O)c(C(=O)N[C@@H](Cc2c[nH]c3ccccc23)C(=O)O)c(O)c1` [Example 113], the “MED value (minimum effective dose)” value is reported as 0.3 µM.
With `COC(=O)[C@H](Cc1c[nH]c2ccccc12)NC(=O)c1c(O)cccc1O` [Example 1, (S)-Methyl 2-(2,6-dihydroxybenzamido)-3-(1H-indol-3-yl)propanoate] the “MED value (minimum effective dose)” value was 0.6 µM.
`N[C@@H](Cc1ccccc1)C(=O)Nc1c(O)cccc1O` [Example 80] was tested, and the “MED value (minimum effective dose)” value was 3 µM.
With `Cn1cc(C[C@H](NC(=O)CCc2ccccc2)C(=O)O)c2ccccc21` [Example 71] the “MED value (minimum effective dose)” value was 1 to 3 µM.
With `O=C(N[C@@H](Cc1c[nH]c2ccccc12)C(=O)O)c1ccc(Br)cc1O` [Example 110] the “MED value (minimum effective dose)” value was 0.1 to 0.3 µM.
`N[C@H](Cc1c[nH]c2ccccc12)C(=O)Nc1c(O)cccc1O` [Example 23] was tested, and the “MED value (minimum effective dose)” value was 10 µM.
With `COC(=O)[C@H](Cc1c[nH]c2ccc(O)cc12)NC(=O)c1c(O)cccc1O` [Example 10] the “MED value (minimum effective dose)” value was 3 µM.
For `O=C(CCc1c[nH]c2ccccc12)Nc1c(O)cccc1O` [Example 87], the “MED value (minimum effective dose)” value was 3 µM.
With `O=C(NCCc1c[nH]c2ccc(O)cc12)c1c(Cl)cccc1Cl` [Example 27] the “MED value (minimum effective dose)” value was 3 µM.
For `O=C(NCCc1c[nH]c2ccc(O)cc12)c1cccc(O)c1O` [Example 32], the “MED value (minimum effective dose)” value was 1.2-6^ μM.
For `COC(=O)[C@H](CCc1ccccc1)NC(=O)c1cc(Br)ccc1O` [Example 98], the “MED value (minimum effective dose)” value was 10 µM.
In the case of `N[C@@H](Cc1c[nH]c2ccccc12)C(=O)Nc1c(O)cccc1O` [Example 22], the “MED value (minimum effective dose)” value is reported as 3 µM.
With `COC(=O)[C@H](Cc1c[nH]c2ccccc12)NC(=O)c1c(O)cc(C)cc1O` [Example 112] the “MED value (minimum effective dose)” value was 1 µM.
`O=C(NC(Cc1c[nH]c2cc(F)ccc12)C(=O)O)c1c(O)cccc1O` (centres unmarked) [Example 19] was tested, and the “MED value (minimum effective dose)” value was 1 µM.
For `O=C(N[C@@H](Cc1c[nH]c2ccccc12)C(=O)OCc1ccccc1)c1c(O)cccc1O` [Example 15], the “MED value (minimum effective dose)” value was 10 µM.
With `COC(=O)[C@H](Cc1ccccc1)NC(=O)c1ccc(Br)cc1O` [Example 107] the “MED value (minimum effective dose)” value was 3 µM.
For `COC(=O)[C@H](Cc1ccccc1)NC(=O)c1c(O)cc(O)cc1O` [Example 122], the “MED value (minimum effective dose)” value was 1 µM.
`CC(C)(C)OC(=O)NC(Cc1c[nH]c2ccccc12)C(=O)Nc1c(O)cccc1O` (stereo in doubt) [Example 21, tert-butyl (S)-1-(2,6-dihydroxyphenylcarbamoyl)-2-(1H-indol-3-yl)ethylcarbamate] was tested, and the “MED value (minimum effective dose)” value was 10 µM.
With `Cc1cc(O)c(C(=O)N[C@@H](CCc2ccccc2)C(=O)O)c(O)c1` [Example 117] the “MED value (minimum effective dose)” value was 0.3 µM.
For `O=C(N[C@H](CO)Cc1c[nH]c2ccccc12)c1c(O)cccc1O` [Example 14], the “MED value (minimum effective dose)” value was 1 µM.
`N[C@@H](CCc1ccccc1)C(=O)Nc1ccccc1S(=O)(=O)O` [Example 103] was tested, and the “MED value (minimum effective dose)” value was 1 µM.
With `O=C(NCCc1c[nH]c2ccccc12)c1c(O)cccc1O` [Example 84] the “MED value (minimum effective dose)” value was 0.3 µM.
With `O=C(CCc1ccccc1)N[C@@H](Cc1c[nH]c2ccc(O)cc12)C(=O)O` [Example 74] the “MED value (minimum effective dose)” value was 10 µM.
In the case of `O=C(CCc1ccccc1)NC(Cc1c[nH]c2ccc(F)cc12)C(=O)O` (centres unmarked) [Example 76], the “MED value (minimum effective dose)” value is reported as 3 µM.
In the case of `CCOC(=O)[C@H](Cc1ccccc1)NC(=O)c1cc(Br)ccc1O` [Example 109], the “MED value (minimum effective dose)” value is reported as 3 µM.
In the case of `COC(=O)[C@H](Cc1c[nH]c2ccccc12)NC(=O)c1ccc(Br)cc1O` [Example 106], the “MED value (minimum effective dose)” value is reported as 3 µM.
With `O=C(NCCc1c[nH]c2ccc(O)cc12)c1ccccc1O` [Example 6] the “MED value (minimum effective dose)” value was 3 µM.
With `O=C(CCc1ccccc1)N[C@@H](Cc1c[nH]c2ccccc12)C(=O)O` [Example 63] the “MED value (minimum effective dose)” value was 1 to 3 µM.
